Usually LD50 stands for the dose expected to kill half of the subjects tested. Read a high LD50 as a less toxic substance.

Each structure is given as a SMILES string.

Here are results for one compound from patent publication EP0001516A1, “Beta-Lactam compounds, processes for their preparation, pharmaceutical compositions containing them and intermediates of use in their preparation” (GLAXO GROUP LIMITED, priority 1977, dated 1979).

For data set [1], the target named is partially purified β-lactamase K1. The data set can be described thus: β-Lactamase inhibition (hydrolysis of ampicillin). The format is biochemical. The following applies: β-lactamase KI; ampicillin sodium 500 µg/ml, 37°C, pH7. Here is the method: (§1) The compounds have been tested for their inhibitory activity against partially purified β-lactamases from Escherichia coli (either TEM or RPI), Klebsiella aerogenes (K1) and Staphylococcus aureus (PCI). The substrate used was ampicillin sodium.
(§2) Ampicillin sodium at a concentration of 500 µg/ml was reacted with the enzyme at 37°C and pH7. The enzyme concentration was such as to destroy all the ampicillin within 10 minutes. The reaction was followed spectrophotometrically by observing the loss of absorption at 238 nm. Concentrations of the compound were added to inhibit the reaction, and the I5O value represents µg/ml of compound halving the initial velocity of hydrolysis of ampicillin.

Data set [2] addresses T1, partially purified β-lactamase PCI (Staphylococcus aureus, UniProt P00807).
T1 construct: partially purified β-lactamases from Escherichia coli (either TEM or RPI), Klebsiella aerogenes (K1) and Staphylococcus aureus (PCI); endogenous in cells; host or cells: Staphylococcus aureus (PCI), enzyme partially purified from the producing bacterium
The data set can be described thus: β-Lactamase inhibition (hydrolysis of ampicillin). The following applies: ampicillin sodium 500 µg/ml, 37°C, pH7, read-out: μg/ml of compound giving 50% inhibition of hydrolysis of ampicillin (converted). The data set is classed as biochemical. As for the experimental part: as §1, §2

For a further data set, the system named is E. cloacae 1321E. The data set can be described thus: Minimum Inhibitory Concentration (MIC), agar dilution. The format is cell-based. The following applies: 18 hours at 37°C. An excerpt:
(§3) Serial two-fold dilutions of freshly prepared test solution were made into Oxoid No. 1 Nutrient agar with or without added enrichment and poured into petri dishes. Plates were innoculated with a multipoint innoculator with innoculum containing approximately 10^5 colony forming units of the organisms shown in Table 1, all of which are clinical isolates.

The test system of a further data set is K. aerogenes 1522E. The description is as above. The format is cell-based. The following applies: 18 hours at 37°C.
From the text: as §3

The subject of data set [3] is Staph. aureus 853E. The data set is described as above. The following applies: Staph. aureus 853E; 18 hours at 37°C. The format is cell-based.
From the text: as §3

The next data set concerns E. coli 851E. The data set is described as above. The data set is classed as cell-based. The following applies: 18 hours at 37°C.
From the text: as §3

A further data set has as its system H. influenzae 1184E. Described as above. The data set is classed as cell-based. The following applies: 18 hours at 37°C.
From the text: as §3

A further data set deals with S. marcescens 1324E. The description is as above. The format is cell-based. The following applies: 18 hours at 37°C.
From the text: as §3

The test system of the next data set is E. cloacae 1051E. The description is as above. The format is cell-based. The following applies: 18 hours at 37°C.
From the text: as §3

A further data set deals with Micrococcus SP 1810E. The data set is described as above. The format is cell-based. The following applies: 18 hours at 37°C.
From the text: as §3

A short description of the next data set: Toxicity in mice. The following applies: mouse, in vivo, ip; administered intraperitoneally to mice.
The subject of a further data set is E. coli (TEM^+) 1193E. The data set can be described thus: Synergy testing with amoxycillin (MIC, agar dilution). The format is cell-based.
From the text: as §3
(§4) Method as for 1, incorporating amoxycillin in serial two-fold dilutions along with a sub-inhibitory, fixed concentration of the test clavulanic acid derivative, as shown in the Table. All of the organisms are clinical isolates.
On the technique in general: In agar dilution, organisms are placed on agar that contains the substance at set levels.

The subject of data set [4] is Staph. aureus 853E. The description is as above. The data set is classed as cell-based. The following applies: in the presence of 1µg/ml of compound.
From the text: as §3, §4

A further data set deals with Pr. rettgeri 1356E. The description is as above. The data set is classed as cell-based.
From the text: as §3, §4

The subject of the next data set is K. aerogenes 1963E. The description is as above. The format is cell-based.
From the text: as §3, §4

Where [5] appears, read: in the presence of 1µg/ml of compound.
The mark [6] stands for this setting: in the presence of 4µg/ml of compound.

T1 sequence (P00807 25-281): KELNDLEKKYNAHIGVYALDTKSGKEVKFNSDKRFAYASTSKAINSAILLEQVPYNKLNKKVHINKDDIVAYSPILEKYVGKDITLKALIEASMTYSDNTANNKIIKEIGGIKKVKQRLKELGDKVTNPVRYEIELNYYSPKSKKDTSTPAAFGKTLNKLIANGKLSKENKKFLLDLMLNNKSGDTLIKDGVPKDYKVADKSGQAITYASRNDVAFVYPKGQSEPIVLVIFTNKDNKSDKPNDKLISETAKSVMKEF

For the compound `CNC(=O)c1cn(C/C=C2\O[C@@H]3CC(=O)N3[C@H]2C(=O)O)nn1` [Example 14, Sodium (3R,5R.Z)-2-{2-[4-(N-methylcarbamoyl)-1.2.3-triazol-1-yl]-ethylidene}-clavam-3-carboxylate], in [1], the “μg/ml of compound giving 50% inhibition of hydrolysis of ampicillin” value turned out to be 0.7 µg/mL. Moreover, the IC50 in data set [2] is 2180 nM. Also, the “MIC (agar dilution) of compound” value against E. cloacae 1321E was 16 µg/mL; in the data set with K. aerogenes 1522E it was 16 µg/mL; in the data set with Staph. aureus 853E [3], 1 µg/mL; in the data set on E. coli 851E it was 8 µg/mL; against H. influenzae 1184E, 31 µg/mL; against S. marcescens 1324E, 31 µg/mL. Also, the “MIC (agar dilution) of compound” value in the data set with E. cloacae 1051E was 16 µg/mL; in the data set with Micrococcus SP 1810E, 1 µg/mL. Further, the LD50 in “Toxicity in mice” was > 500 mg/kg. In addition, the MIC of amoxycillin in the data set with E. coli (TEM^+) 1193E (setting [5]) is 62 µg/mL; in the data set with E. coli (TEM^+) 1193E (setting [6]), 4 µg/mL; in the data set with Staph. aureus 853E [4] it was < 0.1 µg/mL; in the data set with Pr. rettgeri 1356E (setting [5]) it was 8 µg/mL; with Pr. rettgeri 1356E (setting [6]), 1 µg/mL; in the data set with K. aerogenes 1963E (setting [5]), 8 µg/mL. In addition, the MIC of amoxycillin in the data set on K. aerogenes 1963E (setting [6]) was determined as 0.2 µg/mL.
